Data: US8697691B2, “Alkyl 3-((2-amidoethyl)amino)-8-azabicyclo[3.2.1]octane-8-carboxylate analogs as selective M1 agonists and methods of making and using same” (Vanderbilt University, priority 2009, dated 2014)

Molecular target: T1, hM4 receptor (Homo sapiens, UniProt P08173)
T1 construct: host or cells: CHO-K1, additionally stably transfected with Gqi5
T1 sequence (P08173 1-479): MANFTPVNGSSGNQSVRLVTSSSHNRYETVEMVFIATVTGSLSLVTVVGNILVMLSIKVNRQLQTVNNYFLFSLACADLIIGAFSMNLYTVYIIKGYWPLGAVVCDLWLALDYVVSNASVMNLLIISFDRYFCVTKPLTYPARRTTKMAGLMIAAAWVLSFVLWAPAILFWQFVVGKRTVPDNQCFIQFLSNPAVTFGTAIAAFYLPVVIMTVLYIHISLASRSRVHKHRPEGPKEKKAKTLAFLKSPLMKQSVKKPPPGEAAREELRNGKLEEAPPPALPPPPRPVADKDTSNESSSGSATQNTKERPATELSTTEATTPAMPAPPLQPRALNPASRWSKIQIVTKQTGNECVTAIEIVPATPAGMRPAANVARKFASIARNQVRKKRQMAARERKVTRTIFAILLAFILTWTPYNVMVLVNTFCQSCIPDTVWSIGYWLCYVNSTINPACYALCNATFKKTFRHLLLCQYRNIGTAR
Test: Calcium mobilization assay, CHO-K1 cells stably expressing hM4-Gqi5
Type: cell-based
Source text: Chinese hamster ovary (CHO-K1) cells stably expressing rat (r)M1 were purchased from the American Type Culture Collection and cultured according to their indicated protocol. CHO cells stably expressing human (h)M2, hM3, and hM5 were described previously (Levey et al., 1991); hM1 and hM4 cDNAs were purchased from Missouri S&T cDNA Resource; rM4 cDNA was provided by T. I. Bonner (National Institutes of Health, Bethesda, Md.). hM1, hM4, and rM4 cDNAs were used to stably transfect CHO-K1 cells purchased from the American Type Culture Collection using Lipofectamine2000. […]
For low throughput measurement of agonist-evoked increases in intracellular calcium, CHO-K1 cells stably expressing muscarinic receptors were plated in 100 μL of growth medium at 5×10^4 (rM1, hM3, and hM5) or 6×10^4 cells per well (rM1 Y381A, hM2, and rM4) in Costar 96-well black-walled, tissue culture (TC)-treated, clear-bottom plates (Fisher). […] For calcium fluorescence measurements, CRCs of compounds (50 μl, 2×) were added 19 s after the beginning of data collection via a Flexstation II (Molecular Devices, Sunnyvale, Calif.). Fluorescence imaging continued for a total of 130 s acquisition time using an excitation wavelength of 488 nm, an emission wavelength of 525 nm, and a cutoff wavelength of 515 nm. […]

CCOC(=O)N1[C@@H]2CC[C@H]1C[C@H](NCCNC(=O)c1ccccc1)C2 [Example 26, ethyl 3-((3-exo)-(2-benzamidoethyl)amino)-8-azabicyclo[3.2.1]octane-8-carboxylate]
EC50: > 10 µM

CCOC(=O)N1[C@@H]2CC[C@H]1C[C@@H](NCCNC(=O)c1ccccc1)C2 [Example 27, ethyl 3-((3-endo)-(2-benzamidoethyl)amino)-8-azabicyclo[3.2.1]octane-8-carboxylate]
EC50: ~3 µM
